# Laboratory results published in ChEMBL document CHEMBL1201862, “PubChem BioAssay data set” (2004).
# Several values for one entry are separate records, joined by “and”; a condition that tells them apart may be missing. Equal values may be shown once.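 Growth conditions: 96-well plates. Treatment: test compound, 48 hours, 5 concentrations. Analysis: linear interpolation between bracketing concentrations; unreached endpoints set to highest concentration. The concentration for 50% growth inhibition is given as GI50.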 Activity calls are given as the source filed them. Cut-off read from the data, not from the text of the source: active = GI50 up to about 1.1 µM and inactive = higher.
# What was measured:
# Assay in all cases: growth of human tumour cells (NCI), 48 h
# NCI-H23 = system: NCI-H23
# Malme-3M = system: Malme-3M
# HL-60 = system: HL-60
# RXF 631 = system: RXF 631
# SNB-19 = system: SNB-19
# A498 = system: A498
# SK-MEL-2 = system: SK-MEL-2
# NCI-H226 = system: NCI-H226
# SNB-75 = system: SNB-75
# HOP-62 = system: HOP-62
# K562 = system: K562
# SR = system: SR
# NCI-H522 = system: NCI-H522
# 786-0 = system: 786-0
# IGROV-1 = system: IGROV-1
# ACHN = system: ACHN
# SF-268 = system: SF-268
# UACC-62 = system: UACC-62
# NCI/ADR-RES = system: NCI/ADR-RES
# SF-295 = system: SF-295
# UO-31 = system: UO-31
# TK-10 = system: TK-10
# HCC 2998 = system: HCC 2998
# LXFL 529 = system: LXFL 529
# SK-OV-3 = system: SK-OV-3
# HT-29 = system: HT-29
# RPMI-8226 = system: RPMI-8226
# M14 = system: M14
# LOX IMVI = system: LOX IMVI
# SK-MEL-28 = system: SK-MEL-28
# HOP-18 = system: HOP-18
# CCRF-CEM = system: CCRF-CEM
# MCF7 = system: MCF7
# A549 = system: A549
# SNB-78 = system: SNB-78
# SF-539 = system: SF-539
# M19-MEL = system: M19-MEL
# KM12 = system: KM12
# MOLT-4 = system: MOLT-4
# OVCAR-3 = system: OVCAR-3
# CAKI-1 = system: CAKI-1
# EKVX = system: EKVX
# SW-620 = system: SW-620
# DMS-273 = system: DMS-273
# SN12C = system: SN12C
# SK-MEL-5 = system: SK-MEL-5
# OVCAR-5 = system: OVCAR-5
# HCT-15 = system: HCT-15
# NCI-H460 = system: NCI-H460
# HOP-92 = system: HOP-92
# OVCAR-8 = system: OVCAR-8
# UACC-257 = system: UACC-257
# HCT-116 = system: HCT-116
# DLD-1 = system: DLD-1
# COLO 205 = system: COLO 205
# KM-20L2 = system: KM-20L2
# U-251 = system: U-251
# OVCAR-4 = system: OVCAR-4
# RXF 393 = system: RXF 393
structure (smiles),measurement,setting,value
NC(=O)C#CC(N)=O,GI50,NCI-H23,58.5 µM (inactive) and > 91.2 µM (inactive)
same,GI50,Malme-3M,13.1 µM (inactive) and 7.53 µM (inactive)
same,GI50,HL-60,2.52 µM (inactive) and 1.71 µM (inactive)
same,GI50,RXF 631,> 100 µM (inactive)
same,GI50,SNB-19,> 100 µM (inactive) and 121 µM (inactive)
same,GI50,A498,> 100 µM (inactive) and 53.1 µM (inactive)
same,GI50,SK-MEL-2,21.9 µM (inactive) and 13.7 µM (inactive)
same,GI50,NCI-H226,> 100 µM (inactive) and 63 µM (inactive)
same,GI50,SNB-75,30.1 µM (inactive) and 42.2 µM (inactive)
same,GI50,HOP-62,> 100 µM (inactive) and 69.2 µM (inactive)
same,GI50,K562,2.91 µM (inactive) and 4.66 µM (inactive)
same,GI50,SR,14.6 µM (inactive)
same,GI50,NCI-H522,21.2 µM (inactive) and 14.2 µM (inactive)
same,GI50,786-0,29.2 µM (inactive)
same,GI50,IGROV-1,> 100 µM (inactive) and 67.5 µM (inactive)
same,GI50,ACHN,> 100 µM (inactive)
same,GI50,SF-268,60.3 µM (inactive) and 38.9 µM (inactive)
same,GI50,UACC-62,19.4 µM (inactive) and 14.6 µM (inactive)
same,GI50,NCI/ADR-RES,7.14 µM (inactive)
same,GI50,SF-295,13.8 µM (inactive) and 25.2 µM (inactive)
same,GI50,UO-31,24 µM (inactive) and 28.5 µM (inactive)
same,GI50,TK-10,20.8 µM (inactive)
same,GI50,HCC 2998,> 100 µM (inactive) and 58.3 µM (inactive)
same,GI50,LXFL 529,64.9 µM (inactive)
same,GI50,SK-OV-3,> 100 µM (inactive) and 108 µM (inactive)
same,GI50,HT-29,20.8 µM (inactive) and 41.5 µM (inactive)
same,GI50,RPMI-8226,2.14 µM (inactive)
same,GI50,M14,19.2 µM (inactive)
same,GI50,LOX IMVI,14.5 µM (inactive) and 18.3 µM (inactive)
same,GI50,SK-MEL-28,7.08 µM (inactive) and 14 µM (inactive)
same,GI50,HOP-18,18.2 µM (inactive) and 28.2 µM (inactive)
same,GI50,CCRF-CEM,3.08 µM (inactive) and 1.94 µM (inactive)
same,GI50,MCF7,19.3 µM (inactive)
same,GI50,A549,73.3 µM (inactive)
same,GI50,SNB-78,54 µM (inactive) and 47.3 µM (inactive)
same,GI50,SF-539,24.4 µM (inactive) and 19.5 µM (inactive)
C/C=C(\C)C(=O)N1c2ccccc2CC1c1c(C)[nH]c2ccccc12 (stereo unspecified),GI50,M19-MEL,61.7 µM (inactive)
same,GI50,NCI-H23,55.2 µM (inactive)
same,GI50,KM12,26.7 µM (inactive)
same,GI50,MOLT-4,19.9 µM (inactive)
same,GI50,Malme-3M,32 µM (inactive)
same,GI50,OVCAR-3,21.5 µM (inactive)
same,GI50,CAKI-1,48.8 µM (inactive)
same,GI50,EKVX,71.1 µM (inactive)
same,GI50,HL-60,15.1 µM (inactive)
same,GI50,RXF 631,> 100 µM (inactive)
same,GI50,SNB-19,> 100 µM (inactive)
same,GI50,A498,> 100 µM (inactive)
same,GI50,SK-MEL-2,19.3 µM (inactive)
same,GI50,SW-620,> 100 µM (inactive)
same,GI50,DMS-273,39.1 µM (inactive)
same,GI50,SN12C,> 100 µM (inactive)
same,GI50,SK-MEL-5,> 10 µM (inactive)
same,GI50,OVCAR-5,37.3 µM (inactive)
same,GI50,NCI-H226,> 100 µM (inactive)
same,GI50,HCT-15,37 µM
same,GI50,SNB-75,35 µM (inactive)
same,GI50,NCI-H460,37.9 µM (inactive)
same,GI50,HOP-62,> 100 µM (inactive)
same,GI50,HOP-92,12.2 µM (inactive)
same,GI50,K562,39.6 µM (inactive)
same,GI50,SR,> 100 µM (inactive)
same,GI50,OVCAR-8,83.8 µM (inactive)
same,GI50,NCI-H522,42.3 µM (inactive)
same,GI50,786-0,> 100 µM (inactive)
same,GI50,UACC-257,25.2 µM (inactive)
same,GI50,IGROV-1,39.6 µM (inactive)
same,GI50,ACHN,55.8 µM (inactive)
same,GI50,UACC-62,40.7 µM (inactive)
same,GI50,SF-295,40 µM (inactive)
same,GI50,HCT-116,86.9 µM (inactive)
same,GI50,DLD-1,8.18 µM (inactive)
same,GI50,COLO 205,23.3 µM (inactive)
same,GI50,UO-31,36.1 µM (inactive)
same,GI50,TK-10,73.3 µM (inactive)
same,GI50,HCC 2998,> 100 µM (inactive)
same,GI50,LXFL 529,72.9 µM (inactive)
same,GI50,KM-20L2,47.4 µM (inactive)
same,GI50,U-251,91.6 µM (inactive)
same,GI50,SK-OV-3,> 100 µM (inactive)
same,GI50,HT-29,38.4 µM (inactive)
same,GI50,RPMI-8226,25.3 µM (inactive)
same,GI50,M14,39.3 µM (inactive)
same,GI50,LOX IMVI,> 100 µM (inactive)
same,GI50,SK-MEL-28,> 100 µM (inactive)
same,GI50,CCRF-CEM,42.5 µM (inactive)
same,GI50,A549,> 100 µM (inactive)
same,GI50,OVCAR-4,4.15 µM (inactive)
same,GI50,SNB-78,86.5 µM (inactive)
same,GI50,RXF 393,> 100 µM (inactive)
same,GI50,SF-539,50.8 µM (inactive)
